Measurements reported in patent publication US20060069132A1, “Azolecarboxamide herbicides” (priority 2004, published 2006).

Columns and labels:
corn = experiment: Test C pre-/postemergence herbicide test; assay type: in vivo, Zea mays; conditions: for Corn plant response rating: 500 g ai/ha
Method in brief: (§1)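 Visual injury scores run from 0 (no effect) to 100 (complete control), assessed relative to untreated controls 12 to 14 days after treatment in the greenhouse. Chemicals were formulated in a non-phytotoxic solvent mixture with surfactant and applied to soil after planting or to emerged plants at the 1- to 4-leaf stage.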

giant foxtail = experiment: Test C pre-/postemergence herbicide test; assay type: in vivo, Setaria faberi; conditions: for Foxtail, Giant plant response rating: 500 g ai/ha
Method in brief: as §1

morningglory = experiment: Test C pre-/postemergence herbicide test; assay type: in vivo, Ipomoea coccinea; design: key to Plant response rating, Morningglory: 0 = no effect, 100 = complete control; conditions: for Morningglory plant response rating: 500 g ai/ha
Method in brief: as §1

rice = experiment: Test C flooded paddy test; assay type: in vivo, Oryza sativa; conditions: for Plant response rating, Rice: 500 g ai/ha, visual rating after 12 to 14 days
Method in brief: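 Injury scored visually against controls on a 0 (no effect) to 100 (complete control) scale, 12 to 14 days after treatment in greenhouse. Flooded paddy plants treated at 2-leaf stage; postemergence plants at 1- to 4-leaf stage, 2 to 18 cm tall.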

[1] = system: smallflower umbrella sedge; experiment: Test C flooded paddy test; assay type: in vivo, Cyperus difformis; conditions: for Plant response rating, Sedge, Umbrella: 500 g ai/ha, visual rating after 12 to 14 days
soybean = experiment: Test C pre-/postemergence herbicide test; assay type: in vivo, Glycine max; conditions: for Soybean plant response rating: 500 g ai/ha
Method in brief: as §1

barnyardgrass = experiment: Test C flooded paddy test; assay type: in vivo, Echinochloa crus-galli; conditions: for Plant response rating, Barnyardgrass: 500 g ai/ha, visual rating after 12 to 14 days
Method in brief: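 Ratings (0 = no effect, 100 = complete control) come from visual comparison with untreated plants after 12 to 14 days in the greenhouse. Treatment was postemergence at the 1- to 4-leaf stage (2–18 cm), or at the 2-leaf stage for the flooded paddy barnyardgrass.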

Surinam grass = experiment: Test C pre-/postemergence herbicide test; assay type: in vivo, Urochloa decumbens; conditions: for Surinam Grass plant response rating: 500 g ai/ha
Method in brief: as §1

kochia = experiment: Test C pre-/postemergence herbicide test; assay type: in vivo, Kochia scoparia; conditions: for Plant response rating (0 = no effect, 100 = complete control), Kochia: 62 g ai/ha; for Kochia plant response rating: 500 g ai/ha
Method in brief: as §1

velvetleaf = experiment: Test A pre-/postemergence herbicide test; assay type: in vivo, Abutilon theophrasti
Method in brief: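 Pre: seeded sandy loam, directed soil spray, compound in non-phytotoxic solvent + surfactant. Post: 1–2-leaf plants (2–10 cm), sprayed to runoff. Greenhouse ~10 d; visual injury vs untreated, 0–100 scale.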

common ragweed = experiment: Test C pre-/postemergence herbicide test; assay type: in vivo, Ambrosia elatior; design: key to Plant response rating, Ragweed: 0 = no effect, 100 = complete control; conditions: for Ragweed plant response rating: 500 g ai/ha
Method in brief: as §1

[2] = 125 g ai/ha, scale 0 (no effect) to 100 (complete control), visual, 12 to 14 days, preemergence
[3] = 250 g ai/ha, scale 0 to 100 (0 no effect, 100 complete control), visual, 12 to 14 days, preemergence
[4] = Postemergence, 250 g ai/ha, scale 0 to 100, 0 no effect, 100 complete control
[5] = Preemergence, scale 0 to 100, 0 no effect, 100 complete control
[6] = postemergence, 125 g ai/ha, scale 0 to 100
[7] = postemergence, 62 g ai/ha, scale 0 to 100
[8] = 62 g ai/ha, scale 0 to 100 (0 no effect, 100 complete control)
[9] = 125 g ai/ha, scale 0 to 100 (0 no effect, 100 complete control)
[10] = 250 g ai/ha, scale of 0 to 100, 0 is no effect, 100 is complete control
[11] = scale 0 to 100 (0 no effect, 100 complete control)
[12] = 125 g ai/ha, scale of 0 to 100, 0 is no effect, 100 is complete control
[13] = Postemergence, 500 g ai/ha, 0 to 100 scale, 0 no effect, 100 complete control
[14] = Postemergence, 2000 g ai/ha, 0 to 100 scale, 0 no effect, 100 complete control
[15] = Preemergence, 2000 g ai/ha, visual rating, 0 to 100 scale (0 no effect, 100 complete control)
[16] = preemergence, 500 g ai/ha, visual injury, 0 to 100 scale (0 no effect, 100 complete control)
[17] = 31 g ai/ha, preemergence, scale 0 to 100

CCNC(=O)c1cccc(NC(=O)c2cc(C(C)(C)C)nn2CC)n1 [Compound 144]
Plant response rating (0 = no effect, 100 = complete control), Corn (corn; 62 g ai/ha, preemergence): 0 | Plant response rating, Corn (corn; [2]): 30 | Plant response rating, Corn (corn; [3]): 40 | Corn plant response rating (corn; Postemergence, scale 0 to 100): 30 | Plant response rating, Corn (corn; [4]): 20 | Corn plant response rating (corn; [5]): 50 | Plant response rating, Corn (corn; [6]): 20 | Plant response rating, Corn (corn; [7]): 10 | Plant response rating (0 = no effect, 100 = complete control), Foxtail, Giant (giant foxtail; 62 g ai/ha, preemergence): 40 | Plant response rating, Foxtail, Giant (giant foxtail; [2]): 70 | Plant response rating, Foxtail, Giant (giant foxtail; [3]): 100 | Foxtail, Giant plant response rating (giant foxtail; Postemergence, scale 0 to 100): 70 | Plant response rating, Foxtail, Giant (giant foxtail; [4]): 50 | Foxtail, Giant plant response rating (giant foxtail; [5]): 100 | Plant response rating, Foxtail, Giant (giant foxtail; [6]): 10 | Plant response rating, Foxtail, Giant (giant foxtail; [7]): 0 | Plant response rating (0 = no effect, 100 = complete control), Morningglory (morningglory; 62 g ai/ha, preemergence): 0 | Plant response rating, Morningglory (morningglory; [2]): 30 | Morningglory plant response rating (morningglory; Postemergence, scale 0 to 100): 80 | Plant response rating, Morningglory (morningglory; [4]): 20 | Morningglory plant response rating (morningglory; [5]): 90 | Plant response rating, Morningglory (morningglory; [6]): 0 | Plant response rating, Morningglory (morningglory; [7]): 0 | Rice plant response rating (rice; [8]): 0 | Rice plant response rating (rice; [9]): 20 | Rice plant response rating (rice; [10]): 30 | Plant response rating, Rice (rice; [11]): 30 | Sedge, Umbrella plant response rating [1, 8]: 80 | Sedge, Umbrella plant response rating [1, 9]: 80 | Sedge, Umbrella plant response rating [1, 10]: 80 | Plant response rating, Sedge, Umbrella [1, 11]: 90 | Plant response rating (0 = no effect, 100 = complete control), Soybean (soybean; 62 g ai/ha, preemergence): 0 | Plant response rating, Soybean (soybean; [2]): 40 | Soybean plant response rating (soybean; Postemergence, scale 0 to 100): 90 | Plant response rating, Soybean (soybean; [4]): 90 | Soybean plant response rating (soybean; [5]): 80 | Plant response rating, Soybean (soybean; [6]): 85 | Plant response rating, Soybean (soybean; [7]): 70 | Barnyardgrass plant response rating (barnyardgrass; [8]): 20 | Barnyardgrass plant response rating (barnyardgrass; [12]): 20 | Barnyardgrass plant response rating (barnyardgrass; [10]): 50 | Plant response rating, Barnyardgrass (barnyardgrass; [11]): 60 | Plant response rating (0 = no effect, 100 = complete control), Surinam Grass (Surinam grass; 62 g ai/ha, preemergence): 20 | Plant response rating, Surinam Grass (Surinam grass; [2]): 40 | Surinam Grass plant response rating (Surinam grass; Postemergence, scale 0 to 100): 40 | Plant response rating, Surinam Grass (Surinam grass; [4]): 40 | Surinam Grass plant response rating (Surinam grass; [5]): 70 | Plant response rating, Surinam Grass (Surinam grass; [6]): 0 | Plant response rating, Surinam Grass (Surinam grass; [7]): 0 | Plant response rating (0 = no effect, 100 = complete control), Kochia (kochia; preemergence): 75 | Plant response rating, Kochia (kochia; [2]): 80 | Kochia plant response rating (kochia; Postemergence, scale 0 to 100): 85 | Plant response rating, Kochia (kochia; [4]): 70 | Kochia plant response rating (kochia; [5]): 100 | Plant response rating, Kochia (kochia; [6]): 65 | Velvetleaf plant response rating (velvetleaf; [13]): 55 | Plant response rating, Velvetleaf (velvetleaf; [14]): 75 | Velvetleaf plant response rating (velvetleaf; [15]): 90 | Velvetleaf plant response rating (velvetleaf; [16]): 70 | Plant response rating (0 = no effect, 100 = complete control), Ragweed (common ragweed; 62 g ai/ha, preemergence): 0 | Plant response rating, Ragweed (common ragweed; [2]): 30 | Ragweed plant response rating (common ragweed; Postemergence, scale 0 to 100): 80 | Plant response rating, Ragweed (common ragweed; [4]): 50 | Ragweed plant response rating (common ragweed; [5]): 80 | Plant response rating, Ragweed (common ragweed; [6]): 0 | Plant response rating, Ragweed (common ragweed; [7]): 0

CCOC(=O)c1cc(NC(=O)c2cc(C(C)(C)C)nn2CC)ccc1OCC [Compound 95]
Plant response rating, Corn (corn; [17]): 0 | Plant response rating (0 = no effect, 100 = complete control), Corn (corn; 62 g ai/ha, preemergence): 0 | Plant response rating, Corn (corn; [2]): 10 | Plant response rating, Corn (corn; [3]): 20 | Plant response rating, Foxtail, Giant (giant foxtail; [17]): 0 | Plant response rating (0 = no effect, 100 = complete control), Foxtail, Giant (giant foxtail; 62 g ai/ha, preemergence): 60 | Plant response rating, Foxtail, Giant (giant foxtail; [2]): 100 | Plant response rating, Foxtail, Giant (giant foxtail; [3]): 100 | Plant response rating, Morningglory (morningglory; [17]): 0 | Plant response rating (0 = no effect, 100 = complete control), Morningglory (morningglory; 62 g ai/ha, preemergence): 5 | Plant response rating, Morningglory (morningglory; [2]): 10 | Rice plant response rating (rice; [8]): 10 | Rice plant response rating (rice; [12]): 10 | Rice plant response rating (rice; [10]): 55 | Plant response rating, Rice (rice; [11]): 65 | Sedge, Umbrella plant response rating [1, 8]: 85 | Sedge, Umbrella plant response rating [1, 12]: 90 | Sedge, Umbrella plant response rating [1, 10]: 95 | Plant response rating, Sedge, Umbrella [1, 11]: 95 | Plant response rating, Soybean (soybean; [17]): 0 | Plant response rating (0 = no effect, 100 = complete control), Soybean (soybean; 62 g ai/ha, preemergence): 0 | Plant response rating, Soybean (soybean; [2]): 0 | Barnyardgrass plant response rating (barnyardgrass; [8]): 20 | Barnyardgrass plant response rating (barnyardgrass; [12]): 45 | Barnyardgrass plant response rating (barnyardgrass; [10]): 55 | Plant response rating, Barnyardgrass (barnyardgrass; [11]): 60 | Plant response rating, Surinam Grass (Surinam grass; [17]): 0 | Plant response rating (0 = no effect, 100 = complete control), Surinam Grass (Surinam grass; 62 g ai/ha, preemergence): 0 | Plant response rating, Surinam Grass (Surinam grass; [2]): 10 | Plant response rating, Kochia (kochia; [17]): 80 | Plant response rating (0 = no effect, 100 = complete control), Kochia (kochia; preemergence): 100 | Plant response rating, Kochia (kochia; [2]): 100 | Velvetleaf plant response rating (velvetleaf; [13]): 45 | Plant response rating, Velvetleaf (velvetleaf; [14]): 50 | Velvetleaf plant response rating (velvetleaf; Preemergence, 500 g ai/ha, visual rating, 0 to 100 scale (0 no effect, 100 complete control)): 50 | Velvetleaf plant response rating (velvetleaf; [15]): 80 | Plant response rating, Ragweed (common ragweed; [17]): 10 | Plant response rating (0 = no effect, 100 = complete control), Ragweed (common ragweed; 62 g ai/ha, preemergence): 50 | Plant response rating, Ragweed (common ragweed; [2]): 80

CC(=O)c1cccc(NC(=O)c2cc(C(C)(C)C)nn2CCF)c1 [Compound 128]
Plant response rating (0 = no effect, 100 = complete control), Corn (corn; 62 g ai/ha, preemergence): 20 | Plant response rating, Corn (corn; [2]): 20 | Plant response rating (0 = no effect, 100 = complete control), Foxtail, Giant (giant foxtail; 62 g ai/ha, preemergence): 10 | Plant response rating, Foxtail, Giant (giant foxtail; [2]): 10 | Plant response rating (0 = no effect, 100 = complete control), Morningglory (morningglory; 62 g ai/ha, preemergence): 30 | Plant response rating, Morningglory (morningglory; [2]): 30 | Rice plant response rating (rice; [8]): 25 | Rice plant response rating (rice; [9]): 40 | Rice plant response rating (rice; [10]): 70 | Plant response rating, Rice (rice; [11]): 70 | Sedge, Umbrella plant response rating [1, 8]: 80 | Sedge, Umbrella plant response rating [1, 9]: 90 | Sedge, Umbrella plant response rating [1, 10]: 95 | Plant response rating, Sedge, Umbrella [1, 11]: 95 | Plant response rating (0 = no effect, 100 = complete control), Soybean (soybean; 62 g ai/ha, preemergence): 20 | Plant response rating, Soybean (soybean; [2]): 20 | Barnyardgrass plant response rating (barnyardgrass; [8]): 30 | Barnyardgrass plant response rating (barnyardgrass; [12]): 35 | Barnyardgrass plant response rating (barnyardgrass; [10]): 60 | Plant response rating, Barnyardgrass (barnyardgrass; [11]): 65 | Plant response rating (0 = no effect, 100 = complete control), Surinam Grass (Surinam grass; 62 g ai/ha, preemergence): 30 | Plant response rating, Surinam Grass (Surinam grass; [2]): 60 | Plant response rating (0 = no effect, 100 = complete control), Kochia (kochia; preemergence): 0 | Plant response rating, Kochia (kochia; [2]): 0 | Velvetleaf plant response rating (velvetleaf; [13]): 20 | Plant response rating, Velvetleaf (velvetleaf; [14]): 35 | Velvetleaf plant response rating (velvetleaf; [15]): 85 | Velvetleaf plant response rating (velvetleaf; [16]): 75 | Plant response rating (0 = no effect, 100 = complete control), Ragweed (common ragweed; 62 g ai/ha, preemergence): 10 | Plant response rating, Ragweed (common ragweed; [2]): 20
